Patent publication US10405547B2, “Substituted cyclic amides as herbicides” (FMC Corporation, priority 2015, dated 2019)

Legend:
Format in all cases: in vivo
Details in all cases: 0 to 100 scale (0 no effect, 100 complete control)
[1] = system: ryegrass, Italian (Lolium multiflorum); assay: Test A preemergence, Italian ryegrass
Excerpt: (§1) Test A Seeds of plant species selected from barnyardgrass (Echinochloa crus-galli), kochia (Kochia scoparia), ragweed (common ragweed, Ambrosia elatior), ryegrass, Italian (Lolium multiflorum), foxtail, giant (Setaria faberii), and pigweed (Amaranthus retroflexus), were planted into a blend of loam soil and sand and treated preemergence with a directed soil spray using test chemicals formulated in a non-phytotoxic solvent mixture which included a surfactant.
(§2) At the same time, plants selected from these weed species and also blackgrass (Alopecurus myosuroides), galium (catchweed bedstraw, Galium aparine), wheat (Triticum aestivum), and corn (Zea mays) were planted in pots containing the same blend of loam soil and sand and treated with postemergence applications of test chemicals formulated in the same manner. Plants ranged in height from 2 to 10 cm and were in the one- to two-leaf stage for the postemergence treatment. Treated plants and untreated controls were maintained in a greenhouse for approximately 10 days, after which time all treated plants were compared to untreated controls and visually evaluated for injury. Plant response ratings, summarized in Table A, are based on a 0 to 100 scale where 0 is no effect and 100 is complete control. A dash (-) response means no test result.

[2] = system: ryegrass, Italian (Lolium multiflorum); assay: Test A postemergence, Italian ryegrass
Excerpt: as §1, §2

kochia (Kochia scoparia) [3] = assay: Test A preemergence, kochia
Excerpt: as §1, §2

[4] = system: ragweed (common ragweed, Ambrosia elatior); assay: Test A preemergence, ragweed
Excerpt: as §1, §2

[5] = system: barnyardgrass (Echinochloa crus-galli); assay: Test A postemergence, barnyardgrass
Excerpt: as §1, §2

[6] = system: blackgrass (Alopecurus myosuroides); assay: Test A postemergence, blackgrass
Excerpt: as §1, §2

[7] = system: ragweed (common ragweed, Ambrosia elatior); assay: Test A postemergence, ragweed
Excerpt: as §1, §2

[8] = system: wheat (Triticum aestivum); assay: Test A postemergence, wheat
Excerpt: as §1, §2

[9] = system: foxtail, giant (Setaria faberii); assay: Test A preemergence, giant foxtail
Excerpt: as §1, §2

corn (Zea mays) = assay: Test A postemergence, corn
Excerpt: as §1, §2

[10] = system: barnyardgrass (Echinochloa crus-galli); assay: Test A preemergence, barnyardgrass
Excerpt: as §1, §2

kochia (Kochia scoparia) [11] = assay: Test A postemergence, kochia
Excerpt: as §1, §2

[12] = system: pigweed (Amaranthus retroflexus); assay: Test A postemergence, pigweed
Excerpt: as §1, §2

[13] = system: foxtail, giant (Setaria faberii); assay: Test A postemergence, giant foxtail
Excerpt: as §1, §2

[14] = system: galium (catchweed bedstraw, Galium aparine); assay: Test A postemergence, galium
Excerpt: as §1, §2

[15] = system: pigweed (Amaranthus retroflexus); assay: Test A preemergence, pigweed
Excerpt: as §1, §2

[16] = 125 g ai/ha, visual injury, approximately 10 days
[17] = 500 g ai/ha, visual injury, approximately 10 days

Compound	Plant response rating, Ryegrass, Italian ([1]; 125 g ai/ha)	Plant response rating, Ryegrass, Italian [2, 16]	Plant response rating, Kochia (kochia (Kochia scoparia) [3]; 125 g ai/ha)	Plant response rating, Ragweed ([4]; 125 g ai/ha)	Plant response rating, Barnyardgrass [5, 16]	Plant response rating, Blackgrass [6, 16]	Plant response rating, Ragweed [7, 16]	Plant response rating, Wheat [8, 16]	Plant response rating, Foxtail, Giant ([9]; 125 g ai/ha)	Plant response rating, Corn (corn (Zea mays); [16])	Plant response rating, Barnyardgrass ([10]; 125 g ai/ha)	Plant response rating, Kochia (kochia (Kochia scoparia) [11]; [16])	Plant response rating, Pigweed [12, 16]	Plant response rating, Foxtail, Giant [13, 16]	Plant response rating, Galium [14, 16]	Plant response rating, Pigweed ([15]; 125 g ai/ha)	Plant response rating, Ryegrass, Italian ([1]; 500 g ai/ha)	Plant response rating, Ryegrass, Italian [2, 17]	Plant response rating, Kochia (kochia (Kochia scoparia) [3]; 500 g ai/ha)	Plant response rating, Ragweed ([4]; 500 g ai/ha)	also measured
CN1CC(c2cccc(Oc3ncc(F)cc3F)c2)C(C(=O)Nc2ccccc2F)C1=O (single isomer, unassigned) [Compound 72]	50	50	0	0	90	60	30	20	90	20	90	20	30	90	60	0					Plant response rating, Ryegrass, Italian ([1]; 31 g ai/ha): 0; Plant response rating, Ryegrass, Italian ([2]; 31 g ai/ha): 20; Plant response rating, Kochia (kochia (Kochia scoparia) [3]; 31 g ai/ha): 0; Plant response rating, Ragweed ([4]; 31 g ai/ha): 0; Plant response rating, Barnyardgrass ([5]; 31 g ai/ha): 60; Plant response rating, Blackgrass ([6]; 31 g ai/ha): 20; Plant response rating, Ragweed ([7]; 31 g ai/ha): 0; Plant response rating, Wheat ([8]; 31 g ai/ha): 0; Plant response rating, Foxtail, Giant ([9]; 31 g ai/ha): 90; Plant response rating, Corn (corn (Zea mays); 31 g ai/ha): 0; Plant response rating, Barnyardgrass ([10]; 31 g ai/ha): 90; Plant response rating, Kochia (kochia (Kochia scoparia) [11]; 31 g ai/ha): 0; Plant response rating, Pigweed ([12]; 31 g ai/ha): 0; Plant response rating, Foxtail, Giant ([13]; 31 g ai/ha): 80; Plant response rating, Galium ([14]; 31 g ai/ha): 40; Plant response rating, Pigweed ([15]; 31 g ai/ha): 0
O=C1NCC(c2cccc(COc3ccccc3)c2)C1C(=O)Nc1ccc(F)c(F)c1F (stereo not drawn) [Compound 17]	0	0	0	0	30	0	0	0	50	0	20	0	0	30	50	0	0	0	30	0	Plant response rating, Barnyardgrass [5, 17]: 40; Plant response rating, Blackgrass [6, 17]: 0; Plant response rating, Ragweed [7, 17]: 0; Plant response rating, Wheat [8, 17]: 0; Plant response rating, Foxtail, Giant ([9]; 500 g ai/ha): 80; Plant response rating, Corn (corn (Zea mays); [17]): 0; Plant response rating, Barnyardgrass ([10]; 500 g ai/ha): 70; Plant response rating, Kochia (kochia (Kochia scoparia) [11]; [17]): 0; Plant response rating, Pigweed [12, 17]: 0; Plant response rating, Foxtail, Giant [13, 17]: 40; Plant response rating, Galium [14, 17]: 30; Plant response rating, Pigweed ([15]; 500 g ai/ha): 0
O=C1NCC(c2cccc(Cn3cccn3)c2)C1C(=O)Nc1ccc(F)c(F)c1F (stereo not drawn) [Compound 26]	0	0	0	0	30	0	0	0	40	0	40	0	0	30	0	0	0	0	0	0	Plant response rating, Barnyardgrass [5, 17]: 70; Plant response rating, Blackgrass [6, 17]: 0; Plant response rating, Ragweed [7, 17]: 0; Plant response rating, Wheat [8, 17]: 0; Plant response rating, Foxtail, Giant ([9]; 500 g ai/ha): 90; Plant response rating, Corn (corn (Zea mays); [17]): 0; Plant response rating, Barnyardgrass ([10]; 500 g ai/ha): 90; Plant response rating, Kochia (kochia (Kochia scoparia) [11]; [17]): 0; Plant response rating, Pigweed [12, 17]: 0; Plant response rating, Foxtail, Giant [13, 17]: 60; Plant response rating, Galium [14, 17]: 0; Plant response rating, Pigweed ([15]; 500 g ai/ha): 0
O=C1NCC(c2cccc(Cn3cncn3)c2)C1C(=O)Nc1cccc(F)c1F (stereo not drawn) [Compound 32]	0	0	0	0	0	0	0	0	0	0	0	0	0	0	0	0	0	0	0	0	Plant response rating, Barnyardgrass [5, 17]: 10; Plant response rating, Blackgrass [6, 17]: 0; Plant response rating, Ragweed [7, 17]: 0; Plant response rating, Wheat [8, 17]: 0; Plant response rating, Foxtail, Giant ([9]; 500 g ai/ha): 40; Plant response rating, Corn (corn (Zea mays); [17]): 0; Plant response rating, Barnyardgrass ([10]; 500 g ai/ha): 0; Plant response rating, Kochia (kochia (Kochia scoparia) [11]; [17]): 0; Plant response rating, Pigweed [12, 17]: 0; Plant response rating, Foxtail, Giant [13, 17]: 20; Plant response rating, Galium [14, 17]: 40; Plant response rating, Pigweed ([15]; 500 g ai/ha): 0
CN1CC(c2cccc(Oc3ncc(F)cc3F)c2)C(C(=O)Nc2cccc(F)c2F)C1=O (single isomer, unassigned) [Compound 73]	40	40	20	0	70	40	30	20	90	20	90	20	60	90	60	0					Plant response rating, Ryegrass, Italian ([1]; 31 g ai/ha): 0; Plant response rating, Ryegrass, Italian ([2]; 31 g ai/ha): 0; Plant response rating, Kochia (kochia (Kochia scoparia) [3]; 31 g ai/ha): 0; Plant response rating, Ragweed ([4]; 31 g ai/ha): 0; Plant response rating, Barnyardgrass ([5]; 31 g ai/ha): 60; Plant response rating, Blackgrass ([6]; 31 g ai/ha): 0; Plant response rating, Ragweed ([7]; 31 g ai/ha): 0; Plant response rating, Wheat ([8]; 31 g ai/ha): 20; Plant response rating, Foxtail, Giant ([9]; 31 g ai/ha): 80; Plant response rating, Corn (corn (Zea mays); 31 g ai/ha): 20; Plant response rating, Barnyardgrass ([10]; 31 g ai/ha): 50; Plant response rating, Kochia (kochia (Kochia scoparia) [11]; 31 g ai/ha): 0; Plant response rating, Pigweed ([12]; 31 g ai/ha): 50; Plant response rating, Foxtail, Giant ([13]; 31 g ai/ha): 60; Plant response rating, Galium ([14]; 31 g ai/ha): 50; Plant response rating, Pigweed ([15]; 31 g ai/ha): 0
O=C1NCC(c2cccc(Oc3ncc(Cl)cn3)c2)C1C(=O)Nc1ccccc1F (stereo not drawn) [Compound 55]	0	0	0	0	30	0	0	0	80	0	0	0	0	70	0	0	20	30	20	0	Plant response rating, Barnyardgrass [5, 17]: 80; Plant response rating, Blackgrass [6, 17]: 0; Plant response rating, Ragweed [7, 17]: 0; Plant response rating, Wheat [8, 17]: 0; Plant response rating, Foxtail, Giant ([9]; 500 g ai/ha): 90; Plant response rating, Corn (corn (Zea mays); [17]): 0; Plant response rating, Barnyardgrass ([10]; 500 g ai/ha): 80; Plant response rating, Kochia (kochia (Kochia scoparia) [11]; [17]): 0; Plant response rating, Pigweed [12, 17]: 0; Plant response rating, Foxtail, Giant [13, 17]: 80; Plant response rating, Galium [14, 17]: 30; Plant response rating, Pigweed ([15]; 500 g ai/ha): 0
